Experiment [1] addresses T1, Heat shock factor protein 1 (Mus musculus, UniProt P38532).
T1 sequence (P38532 whole entry): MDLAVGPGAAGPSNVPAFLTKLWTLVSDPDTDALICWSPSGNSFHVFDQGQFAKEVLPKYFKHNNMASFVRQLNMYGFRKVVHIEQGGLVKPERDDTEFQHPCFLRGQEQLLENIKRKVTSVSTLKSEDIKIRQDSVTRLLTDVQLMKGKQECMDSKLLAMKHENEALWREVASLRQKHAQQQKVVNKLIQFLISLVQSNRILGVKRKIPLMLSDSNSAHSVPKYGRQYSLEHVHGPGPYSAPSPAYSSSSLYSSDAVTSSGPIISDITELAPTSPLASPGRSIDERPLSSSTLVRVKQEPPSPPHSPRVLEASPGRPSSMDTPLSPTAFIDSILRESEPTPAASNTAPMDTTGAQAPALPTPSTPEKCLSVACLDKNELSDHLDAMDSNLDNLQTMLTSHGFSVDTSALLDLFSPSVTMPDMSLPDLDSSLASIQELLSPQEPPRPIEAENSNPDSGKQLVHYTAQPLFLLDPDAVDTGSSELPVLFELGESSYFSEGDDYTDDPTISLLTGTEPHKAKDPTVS
The experiment in a line: inhibition of MG132-induced HSE-luciferase signal, confirmation, cell-based, NIH3T3, luminescence, dose retest (AID 2382).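 Note: NIH3T3 fibroblasts with HSF1-driven luciferase reporter stressed by proteasome inhibitor MG132; luminescence from HSF1-driven luciferase expression after 8 hours of MG132 stress.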 The experiment is classed as functional.

Experiment [2] can be described thus: C. albicans growth with fluconazole, confirmation, fluorescence, retest (AID 2467). The experiment is classed as functional, cell-based.
A short description of experiment [3]: growth suppression of PTEN-null colon cells, dose response, cell-based, HCT116 PTEN knockout (AID 1047).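 Note: HCT116 colon tumor cells with PTEN knocked out; cells exposed to compound for 60 hours before readout; potency for loss of cell viability measured by luminescence.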 The experiment is classed as functional.
Experiment [4] can be described thus: cytotoxicity toward NIH3T3 fibroblasts, dose response, counter-screen, cell-based, ATP luminescence, mouse fibroblasts (AID 2010).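 Note: cells exposed to compound for about 90 hours before reading.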 The experiment is classed as functional.
Experiment [5] has as its target Heat shock protein HSP 90-alpha (Homo sapiens, UniProt P07900). In words: Luminescence-based dose response biochemical high throughput screening assay for inhibitors of the Heat Shock Protein 90 (HSP90). [Related pubchem assays: 1831 (Summary AID.), 1846 (Confirmation screen.), 1789 (Primary screen.)].
The next experiment deals with Streptococcus. In words: Group A Streptococcus viability loss, dose response, counter-screen for streptokinase expression inhibitor project, luminescence, BacTiterGlo (AID 1915).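 Note: potency for reduction of bacterial viability or growth.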 Format: functional, organism-based.
The nature of experiment [6]: THP-1 cell cytotoxicity, dose response, cytotoxicity control for non-replicating M. tuberculosis project (AID 489025). Format: functional.
Experiment [7] in a line: HepG2 cell cytotoxicity, dose response, cytotoxicity control for non-replicating M. tuberculosis project (AID 489018). The experiment is classed as functional. The note with it: Mycobacterium tuberculosis.
The target in another experiment is Beta-galactosidase (Escherichia coli, UniProt Q8VNN2). In words: beta-galactosidase enzyme inhibitors and activators, dose response, artefact control for CCR6 antagonist project, biochemical, E. coli enzyme, set 3 (AID 504712). The experiment is classed as functional.
Chain of Beta-galactosidase (Q8VNN2 whole entry): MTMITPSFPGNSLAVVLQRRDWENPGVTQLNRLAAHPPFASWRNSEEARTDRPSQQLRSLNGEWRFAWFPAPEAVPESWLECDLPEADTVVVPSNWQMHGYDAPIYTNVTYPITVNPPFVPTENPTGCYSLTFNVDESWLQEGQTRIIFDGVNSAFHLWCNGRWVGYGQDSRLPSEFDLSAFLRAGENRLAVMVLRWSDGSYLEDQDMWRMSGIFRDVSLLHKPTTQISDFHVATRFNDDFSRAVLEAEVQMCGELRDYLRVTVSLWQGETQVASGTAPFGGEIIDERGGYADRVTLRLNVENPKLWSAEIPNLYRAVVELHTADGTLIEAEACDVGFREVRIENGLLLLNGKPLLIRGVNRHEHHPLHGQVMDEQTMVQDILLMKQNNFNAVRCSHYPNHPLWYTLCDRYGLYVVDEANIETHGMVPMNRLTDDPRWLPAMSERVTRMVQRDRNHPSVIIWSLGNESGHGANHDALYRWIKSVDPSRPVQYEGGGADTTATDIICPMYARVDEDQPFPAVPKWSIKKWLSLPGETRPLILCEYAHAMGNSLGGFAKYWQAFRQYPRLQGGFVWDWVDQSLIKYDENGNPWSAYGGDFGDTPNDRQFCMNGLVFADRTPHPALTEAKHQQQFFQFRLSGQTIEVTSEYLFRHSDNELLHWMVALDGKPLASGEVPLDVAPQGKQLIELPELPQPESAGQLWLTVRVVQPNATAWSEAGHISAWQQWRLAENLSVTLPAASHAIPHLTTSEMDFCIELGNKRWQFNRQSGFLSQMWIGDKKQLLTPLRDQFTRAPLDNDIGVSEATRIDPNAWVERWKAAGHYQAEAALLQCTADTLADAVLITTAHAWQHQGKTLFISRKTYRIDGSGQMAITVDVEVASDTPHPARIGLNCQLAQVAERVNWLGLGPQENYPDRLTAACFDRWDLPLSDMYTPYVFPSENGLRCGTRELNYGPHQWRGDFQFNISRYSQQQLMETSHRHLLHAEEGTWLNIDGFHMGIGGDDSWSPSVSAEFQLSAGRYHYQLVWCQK
A short description of experiment [8]: Vero E6 cell cytotoxicity, dose response, cytotoxicity control for non-replicating M. tuberculosis project, secondary assay (AID 492998). Format: functional, VeroE6. The note with it: Vero C1008.
Experiment [9] has as its target T2, Replicative DNA helicase DnaB (Mycobacterium tuberculosis, UniProt P9WMR3).
T2 sequence (P9WMR3 whole entry): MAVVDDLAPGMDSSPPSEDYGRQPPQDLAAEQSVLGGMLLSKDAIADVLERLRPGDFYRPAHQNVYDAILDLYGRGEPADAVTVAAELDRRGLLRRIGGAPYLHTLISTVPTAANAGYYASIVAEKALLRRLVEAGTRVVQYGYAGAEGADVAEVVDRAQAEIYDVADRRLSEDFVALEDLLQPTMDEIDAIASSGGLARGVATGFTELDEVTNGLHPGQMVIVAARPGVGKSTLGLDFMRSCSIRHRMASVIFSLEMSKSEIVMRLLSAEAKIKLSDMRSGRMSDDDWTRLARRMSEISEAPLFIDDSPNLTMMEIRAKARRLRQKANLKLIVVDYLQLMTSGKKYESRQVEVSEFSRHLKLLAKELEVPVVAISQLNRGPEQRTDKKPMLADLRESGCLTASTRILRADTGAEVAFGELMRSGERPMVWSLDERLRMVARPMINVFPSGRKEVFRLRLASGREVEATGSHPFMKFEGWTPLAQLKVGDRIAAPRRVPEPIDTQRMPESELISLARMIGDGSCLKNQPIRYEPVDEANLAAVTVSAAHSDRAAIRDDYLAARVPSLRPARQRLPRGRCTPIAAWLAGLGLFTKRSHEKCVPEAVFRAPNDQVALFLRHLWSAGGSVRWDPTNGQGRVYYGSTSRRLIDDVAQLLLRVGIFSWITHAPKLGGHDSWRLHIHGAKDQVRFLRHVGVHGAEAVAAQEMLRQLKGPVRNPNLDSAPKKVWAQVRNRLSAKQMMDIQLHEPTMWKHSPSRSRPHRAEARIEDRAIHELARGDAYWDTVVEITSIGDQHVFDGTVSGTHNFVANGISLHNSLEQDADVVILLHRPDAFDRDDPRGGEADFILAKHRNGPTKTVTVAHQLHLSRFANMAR
In words: DnaB intein splicing inhibitors, dose response, biochemical, cell-free fluorescence (AID 449749). The experiment is classed as functional.

A further experiment concerns INS1. The experiment in a line: beta cell apoptosis inhibitors, cytokine rescue, dose response, luminescence, retest (AID 449756).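 Note: cell death triggered by IL-1 beta plus TNF-alpha plus IFN-gamma mixture; protective hits raise ATP signal compared with cytokine alone wells.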 Format: functional, cell-based. The note with it: Rattus norvegicus.

Calls of active or inactive are those of the source.

Consider `O=C1C(Nc2ccccc2)=C/C(=N/S(=O)(=O)c2cccs2)c2ccccc21`, for which the EC50 in experiment [1] was 1.09 µM (active); in experiment [2] it was 1.35 µM (active); in experiment [3], 4.13 µM (active); in experiment [4], 1.29 µM (active); in the experiment on Streptococcus, 4.21 µM (active). Moreover, the IC50 is 0.348 µM (active) in experiment [5] and > 66.6 µM (inactive) on Beta-galactosidase. Also, the CC50 is 1.8 µM (active) in experiment [6], 13.9 µM (active) in [7] and 7.43 µM (active) in experiment [8]. Also, the AC50 in experiment [9] was 0.187 µM (active); in the experiment with INS1, 0.907 µM (active).

These data come from ChEMBL document CHEMBL1201862, “PubChem BioAssay data set” (2004).
